How the values were obtained:
Assay in all cases: DSF thermal shift, kinase panel
Type in all cases: binding
Settings in all cases: 10 μM compound
CAMKK1 = molecular target: T1, CAMKK1 (Homo sapiens, UniProt Q8N5S9)
T1 construct: purchased in-house (home-made panel, SGC-style construct names)
Procedure: (§1) The corresponding dianilino-TDZs (1–5) were tested on a panel of 46 protein kinases representing the major kinome branches at a concentration of 10 μM using a Differential Scanning Fluorimetry (DSF). Only analogues 1–3 induced a significant (>2 °C) thermal shift when incubated with a subset of the proteins (Table 1).
(§2) Kinase selectivity assay—A home-made kinase panel was generated for the following enzymes: AAK1, BMP2K, BMX, BRAF, CAMK1D, CAMK1G, CAMKK1, CAMKK2B, CDC42BPA, CDK2, CDKL1, CHEK2, CLK1, CSNK1G1, CSNK1G3, CSNK2A1, DYRK1A, DYRK2A, EPHA2, GAK, GSG2, MAPK1, MAP2K7, MAPK14B, MAPK3, PHKG2, PIM1, PLK1, PKMYT1, PRPF4B, RPS6KA1A, RPS6KA5A, RPS6KA6A, SLK, SRPK1, SRPK2, STK3, STK6, STK10, STK17A, STK24, STK38L, TRIB2, TTK, VRK1 and VRK2. Proteins were produced in E. coli, purified in a Ni-chelate column, followed by overnight digestion using TEV protease (made in house with an N-terminal 6xHis tag) and dialysis to remove imidazole. To clear samples of uncleaved proteins and the TEV protease, samples were loaded on new Ni-chelate columns. The flow through was collected, concentrated and loaded to a HiLoad Superdex 200 16/600 column (GE Healthcare, Chicago, IL, USA) for final polishing and buffer exchange.
(§3) Starting from 100 µM protein stocks, our kinase panel enzymes were diluted to 1 µM in buffer 100 mM K2HPO4 pH 7.5 containing 150 mM NaCl, 10% glycerol and 5X dye (Applied Biosystems catalogue 4461806). The protein/dye mixture was transferred to a 384-well PCR microplate having 20 µL per well. Compounds in DMSO at 10 mM concentration were added in 20 nL volume, using a liquid handling device setup with a pin head, to make 10 µM compound concentration in the assay plate.
(§4) Protein thermal shift data was measured in a qPCR instrument (Applied Biosystems QuantStudio 6) programmed to equilibrate the plate at 25 °C for 5 min followed by ramping the temperature to 95 °C at a rate of 0.05 °C/s. Data was processed using Protein Thermal shift software (Applied Biosystems) by fitting experimental curves to a Boltzmann function to calculate differential thermal shifts (dTm) referenced to protein/dye in 0.2% DMSO.

CDKL1 = molecular target: T2, CDKL1 (Homo sapiens, UniProt Q00532)
T2 construct: purchased in-house (home-made panel, SGC-style construct names)
Procedure: as §1, §2, §3, §4

CLK1 = molecular target: T3, CLK1 (Homo sapiens, UniProt P49759)
T3 construct: purchased in-house (home-made panel, SGC-style construct names)
Procedure: as §1, §2, §3, §4

CSNK1G3 = molecular target: T4, CSNK1G3 (Homo sapiens, UniProt Q9Y6M4)
T4 construct: purchased in-house (home-made panel, SGC-style construct names)
Procedure: as §1, §2, §3, §4

GAKA = molecular target: T5, GAKA (Homo sapiens, UniProt O14976)
T5 construct: purchased in-house (home-made panel, SGC-style construct names)
T5 sequence (O14976 1-1311): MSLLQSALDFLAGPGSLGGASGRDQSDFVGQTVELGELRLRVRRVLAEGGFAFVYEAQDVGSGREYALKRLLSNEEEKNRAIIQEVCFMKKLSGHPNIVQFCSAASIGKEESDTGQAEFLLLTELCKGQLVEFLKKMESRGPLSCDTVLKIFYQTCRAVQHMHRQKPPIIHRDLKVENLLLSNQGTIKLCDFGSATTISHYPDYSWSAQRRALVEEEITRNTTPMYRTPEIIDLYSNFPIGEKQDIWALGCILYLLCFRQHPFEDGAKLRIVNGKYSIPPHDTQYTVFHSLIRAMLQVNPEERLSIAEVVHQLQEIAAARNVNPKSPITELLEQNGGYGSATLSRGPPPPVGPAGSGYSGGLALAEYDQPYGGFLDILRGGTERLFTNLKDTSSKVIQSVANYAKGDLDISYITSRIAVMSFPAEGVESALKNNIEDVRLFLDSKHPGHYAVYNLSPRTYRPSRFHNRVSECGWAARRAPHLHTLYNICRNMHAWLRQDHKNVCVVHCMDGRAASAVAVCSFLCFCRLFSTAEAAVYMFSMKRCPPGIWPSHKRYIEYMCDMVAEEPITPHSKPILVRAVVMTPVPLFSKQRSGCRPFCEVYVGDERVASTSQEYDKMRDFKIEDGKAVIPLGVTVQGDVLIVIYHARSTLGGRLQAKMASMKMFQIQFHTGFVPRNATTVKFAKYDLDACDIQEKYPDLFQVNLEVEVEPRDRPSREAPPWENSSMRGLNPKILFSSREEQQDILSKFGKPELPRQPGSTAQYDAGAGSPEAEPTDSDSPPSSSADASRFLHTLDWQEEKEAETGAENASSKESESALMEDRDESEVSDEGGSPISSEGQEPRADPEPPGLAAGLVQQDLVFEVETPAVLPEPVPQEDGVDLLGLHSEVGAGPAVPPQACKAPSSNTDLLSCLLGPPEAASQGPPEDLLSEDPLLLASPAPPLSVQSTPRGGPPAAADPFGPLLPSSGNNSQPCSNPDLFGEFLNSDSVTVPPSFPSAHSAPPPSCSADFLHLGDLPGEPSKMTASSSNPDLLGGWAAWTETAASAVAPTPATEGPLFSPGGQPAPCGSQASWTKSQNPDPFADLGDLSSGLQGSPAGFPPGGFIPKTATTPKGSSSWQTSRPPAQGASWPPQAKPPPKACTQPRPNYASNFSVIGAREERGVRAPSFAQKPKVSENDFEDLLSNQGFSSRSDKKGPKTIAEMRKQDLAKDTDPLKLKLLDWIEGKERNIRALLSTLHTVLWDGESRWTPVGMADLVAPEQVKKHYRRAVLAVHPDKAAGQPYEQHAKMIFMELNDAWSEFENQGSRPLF
Procedure: as §1, §2, §3, §4

RPS6KA5A = molecular target: T6, RPS6KA5A (Homo sapiens, UniProt O75582)
T6 construct: purchased in-house (home-made panel, SGC-style construct names)
Procedure: as §1, §2, §3, §4

T6 sequence (O75582 whole entry): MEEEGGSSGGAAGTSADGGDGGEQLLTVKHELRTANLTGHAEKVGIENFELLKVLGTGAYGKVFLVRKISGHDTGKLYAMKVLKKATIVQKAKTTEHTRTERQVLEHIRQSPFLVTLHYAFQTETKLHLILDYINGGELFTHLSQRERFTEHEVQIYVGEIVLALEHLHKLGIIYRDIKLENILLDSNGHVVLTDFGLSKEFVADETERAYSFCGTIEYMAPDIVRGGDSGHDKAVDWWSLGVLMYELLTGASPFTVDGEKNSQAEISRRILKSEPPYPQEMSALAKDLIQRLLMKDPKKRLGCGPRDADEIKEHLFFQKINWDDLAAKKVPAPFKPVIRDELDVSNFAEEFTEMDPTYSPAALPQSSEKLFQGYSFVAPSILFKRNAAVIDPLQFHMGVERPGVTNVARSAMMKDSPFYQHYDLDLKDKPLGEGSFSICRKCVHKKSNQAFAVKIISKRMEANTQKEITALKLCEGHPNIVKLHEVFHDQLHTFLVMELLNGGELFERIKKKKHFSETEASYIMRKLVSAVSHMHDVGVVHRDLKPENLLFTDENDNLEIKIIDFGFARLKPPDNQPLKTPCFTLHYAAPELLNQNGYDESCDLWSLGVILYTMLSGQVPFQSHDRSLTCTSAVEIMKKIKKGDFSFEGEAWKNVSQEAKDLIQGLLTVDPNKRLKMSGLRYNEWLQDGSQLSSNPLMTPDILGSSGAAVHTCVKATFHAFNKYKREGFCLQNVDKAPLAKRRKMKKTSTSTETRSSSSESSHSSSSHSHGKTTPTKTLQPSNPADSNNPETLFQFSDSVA
T4 sequence (Q9Y6M4 whole entry): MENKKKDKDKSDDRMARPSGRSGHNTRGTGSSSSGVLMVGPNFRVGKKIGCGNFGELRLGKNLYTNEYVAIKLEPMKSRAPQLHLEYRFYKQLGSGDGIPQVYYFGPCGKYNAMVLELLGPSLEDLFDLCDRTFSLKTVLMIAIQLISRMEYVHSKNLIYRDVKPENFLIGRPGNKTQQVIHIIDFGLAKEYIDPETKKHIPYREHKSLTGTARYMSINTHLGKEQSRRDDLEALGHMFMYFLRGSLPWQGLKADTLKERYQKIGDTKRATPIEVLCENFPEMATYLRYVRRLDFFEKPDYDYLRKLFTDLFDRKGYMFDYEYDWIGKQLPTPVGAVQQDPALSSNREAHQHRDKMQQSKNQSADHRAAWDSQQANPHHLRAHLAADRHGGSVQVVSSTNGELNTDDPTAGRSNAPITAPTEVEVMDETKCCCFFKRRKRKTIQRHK
T1 sequence (Q8N5S9 whole entry): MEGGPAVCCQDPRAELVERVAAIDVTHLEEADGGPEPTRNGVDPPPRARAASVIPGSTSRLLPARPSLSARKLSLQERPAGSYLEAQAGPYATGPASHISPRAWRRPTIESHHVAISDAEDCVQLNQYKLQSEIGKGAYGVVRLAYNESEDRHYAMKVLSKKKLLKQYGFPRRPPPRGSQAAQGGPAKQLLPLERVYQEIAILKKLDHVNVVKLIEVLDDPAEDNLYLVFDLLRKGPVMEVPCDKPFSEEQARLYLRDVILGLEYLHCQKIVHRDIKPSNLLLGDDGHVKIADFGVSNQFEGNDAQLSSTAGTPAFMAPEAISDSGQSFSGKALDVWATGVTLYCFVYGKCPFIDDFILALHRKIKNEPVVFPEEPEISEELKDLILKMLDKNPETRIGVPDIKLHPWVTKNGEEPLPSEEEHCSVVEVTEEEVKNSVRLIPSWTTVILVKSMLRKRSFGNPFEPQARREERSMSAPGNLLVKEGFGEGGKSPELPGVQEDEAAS
T2 sequence (Q00532 whole entry): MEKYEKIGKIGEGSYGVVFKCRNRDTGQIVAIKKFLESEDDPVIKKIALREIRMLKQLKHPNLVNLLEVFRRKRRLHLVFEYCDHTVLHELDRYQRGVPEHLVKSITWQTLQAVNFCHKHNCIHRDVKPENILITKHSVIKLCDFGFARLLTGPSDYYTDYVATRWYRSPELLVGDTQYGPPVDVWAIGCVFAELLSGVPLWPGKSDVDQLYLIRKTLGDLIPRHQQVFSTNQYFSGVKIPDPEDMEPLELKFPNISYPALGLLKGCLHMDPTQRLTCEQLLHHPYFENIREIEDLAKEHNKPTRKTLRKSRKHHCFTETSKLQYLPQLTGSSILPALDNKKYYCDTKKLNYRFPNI
T3 sequence (P49759 whole entry): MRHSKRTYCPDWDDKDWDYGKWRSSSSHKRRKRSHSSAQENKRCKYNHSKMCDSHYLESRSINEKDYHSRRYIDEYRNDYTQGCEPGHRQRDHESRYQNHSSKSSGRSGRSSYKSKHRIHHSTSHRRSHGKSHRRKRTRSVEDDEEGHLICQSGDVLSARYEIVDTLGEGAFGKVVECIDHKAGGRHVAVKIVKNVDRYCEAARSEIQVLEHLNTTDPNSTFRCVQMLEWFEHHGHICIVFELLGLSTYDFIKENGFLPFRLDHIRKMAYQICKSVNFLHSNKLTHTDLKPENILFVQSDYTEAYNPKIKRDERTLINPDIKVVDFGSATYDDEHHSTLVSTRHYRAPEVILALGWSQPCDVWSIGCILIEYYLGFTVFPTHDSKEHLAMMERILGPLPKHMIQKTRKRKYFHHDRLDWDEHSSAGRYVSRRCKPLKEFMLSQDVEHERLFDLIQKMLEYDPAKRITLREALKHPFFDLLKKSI

Compound: Cc1ccc(Nc2nsnc(Nc3cccc(C(N)=O)c3)c2=O)cc1O [Compound 1, 3-({5-[(3-Hydroxy-4-methylphenyl)amino]-4-oxo-4H-1,2,6-thiadiazin-3-yl}amino)benzamide]
- ΔTm at 10 µM (CAMKK1): 0 °C
- ΔTm at 10 µM (CDKL1): 1.2 °C
- ΔTm at 10 µM (CLK1): 0.5 °C
- ΔTm at 10 µM (CSNK1G3): 0 °C
- ΔTm at 10 µM (GAKA): -0.3 °C
- ΔTm at 10 µM (RPS6KA5A): -0.9 °C

Compound: Cc1ccc(Nc2nsnc(Nc3ccc(C(N)=O)cc3)c2=O)cc1O [Compound 2, 4-({5-[(3-Hydroxy-4-methylphenyl)amino]-4-oxo-4H-1,2,6-thiadiazin-3-yl}amino)benzamide]
- ΔTm at 10 µM (CAMKK1): 3.7 °C
- ΔTm at 10 µM (CDKL1): 1 °C
- ΔTm at 10 µM (CLK1): 0.9 °C
- ΔTm at 10 µM (CSNK1G3): 0.1 °C
- ΔTm at 10 µM (GAKA): 1.4 °C
- ΔTm at 10 µM (RPS6KA5A): 1.7 °C

Compound: Cc1ccc(Nc2nsnc(Nc3ccc4c(c3)CS(=O)(=O)C4)c2=O)cc1O [Compound 3, 3-[(2,2-Dioxido-1,3-dihydrobenzo[c]thiophen-5-yl)amino]-5-[(3-hydroxy-4-methylphenyl)amino]-4H-1,2,6-thiadiazin-4-one]
- ΔTm at 10 µM (CAMKK1): 1.4 °C
- ΔTm at 10 µM (CDKL1): 0.9 °C
- ΔTm at 10 µM (CLK1): 2.1 °C
- ΔTm at 10 µM (CSNK1G3): -0.2 °C
- ΔTm at 10 µM (GAKA): 0 °C
- ΔTm at 10 µM (RPS6KA5A): -0.3 °C

Compound: CNC(=O)c1ccccc1Nc1nsnc(Nc2cccc(CS(C)(=O)=O)c2)c1=O [Compound 4, N-Methyl-2-([5-({3-[(methylsulfonyl)methyl]phenyl}amino)-4-oxo-4H-1,2,6-thiadiazin-3-yl]-amino}-benzamide]
- ΔTm at 10 µM (CAMKK1): -0.4 °C
- ΔTm at 10 µM (CDKL1): 0.5 °C
- ΔTm at 10 µM (CLK1): 0 °C
- ΔTm at 10 µM (CSNK1G3): -0.1 °C
- ΔTm at 10 µM (GAKA): -0.4 °C
- ΔTm at 10 µM (RPS6KA5A): -1.2 °C

Compound: CNC(=O)c1ccccc1Nc1nsnc(Nc2ccc(N3CCOCC3)cc2)c1=O [Compound 5, N-Methyl-2-({5-[(4-morpholinophenyl)amino]-4-oxo-4H-1,2,6-thiadiazin-3-yl}amino)benzamide]
- ΔTm at 10 µM (CAMKK1): -0.4 °C
- ΔTm at 10 µM (CDKL1): 0.5 °C
- ΔTm at 10 µM (CLK1): 1 °C
- ΔTm at 10 µM (CSNK1G3): 0 °C
- ΔTm at 10 µM (GAKA): -0.4 °C
- ΔTm at 10 µM (RPS6KA5A): -1.1 °C
